Assay: mn = molality of the nth substance listed, in mol/kg
Conditions: 298.15 K, 101 kPa, Liquid, Pycnometric method

O=[N+]([O-])[O-].O=[N+]([O-])[O-].[Mn+2] [manganese nitrate] + O
Conditions	mass density [kg/m3]
m1 = 0.0287	1000.9
m1 = 0.1948	1023
m1 = 0.5661	1069.9
m1 = 1.373	1162.1
m1 = 2.006	1224
m1 = 3.484	1359

O=[N+]([O-])[O-].O=[N+]([O-])[O-].O=[N+]([O-])[O-].[Al+3] [aluminum trinitrate] + O
Conditions	mass density [kg/m3]
m1 = 0.5413	1081.6
m1 = 0.8667	1128.8
m1 = 1.007	1148.4
m1 = 1.507	1213.3
m1 = 2.012	1288.7
m1 = 2.793	1355.7

O=[N+]([O-])[O-].O=[N+]([O-])[O-].O=[N+]([O-])[O-].[Fe+3] [ferric nitrate] + O
Conditions	mass density [kg/m3]
m1 = 0.1102	1017.4
m1 = 0.4672	1079.1
m1 = 1.183	1194.2
m1 = 1.476	1235.5
m1 = 1.907	1293.8
m1 = 2.442	1363.6

Reference: the NIST ThermoML archive (doi:10.1021/je5009894)
